Like-named read-outs stand apart in the source and are kept apart here.
What was measured:
ABUTH = test: Greenhouse herbicidal effectiveness, ABUTH; format: in vivo, velvetleaf; conditions: for % inhibition ABUTH (14 DAT) / % inhibition ABUTH (20 DAT): oxalate/oxalic acid alone, Table 44A; for efficacy ABUTH: Table 19A, 16 days after treatment; for inhibition at 75 g/ha / inhibition at 100 g/ha / inhibition at 150 g/ha / inhibition at 200 g/ha: Abutilon theophrasti, 408 h, read-out: % inhibition ABUTH, Table 19B, 17 days after treatment; for inhibition at 75 g/ha: 75 g a.e./ha; for inhibition at 150 g/ha: 150 g a.e./ha
Excerpt: (§1) The following greenhouse testing procedure was used for evaluating compositions of the Examples to determine herbicidal effectiveness, except where otherwise indicated.
(§2) Seeds of the plant species indicated were planted in 88 mm square pots in a soil mix which was previously sterilized and prefertilized with a 14-14-14 NPK slow release fertilizer at a rate of 3.6 kg/m3. The pots were placed in a greenhouse with sub-irrigation. About one week after emergence, seedlings were thinned as needed, including removal of any unhealthy or abnormal plants, to create a uniform series of test pots.
(§3) The plants were maintained for the duration of the test in the greenhouse where they received a minimum of 14 hours of light per day. […] Exposure temperatures were not precisely controlled but averaged about 29° C. during the day and about 21° C. during the night. Plants were sub-irrigated throughout the test to ensure adequate soil moisture levels.
(§4) Pots were assigned to different treatments in a fully randomized experimental design with 6 replications. A set of pots was left untreated as a reference against which affects of the treatments could later be evaluated.
(§5) Application of glyphosate compositions was made by spraying with a track sprayer fitted with a 9501E nozzle calibrated to deliver a spray volume of 93 liters per hectare (l/ha) at a pressure of 165 kilopascals (kPa). After treatment, pots were returned to the greenhouse until ready for evaluation.
(§6) Treatments were made using dilute aqueous compositions. These could be prepared as spray compositions directly from their ingredients, or by dilution with water of preformulated concentrate compositions.
(§7) For evaluation of herbicidal effectiveness, all plants in the test were examined by a single practiced technician, who recorded percent control, a visual measurement of the effectiveness of each treatment by comparison with untreated plants. […] The reported % control values represent the average for all replicates of each treatment.

ECHCF = test: Greenhouse herbicidal effectiveness, ECHCF; format: in vivo, Japanese millet, barnyardgrass; conditions: for efficacy ECHCF: Table 19A, 16 days after treatment; for inhibition at 75 g/ha / inhibition at 100 g/ha / inhibition at 150 g/ha / inhibition at 200 g/ha: 408 h, read-out: % inhibition ECHCF, Table 19B, 17 days after treatment; for inhibition at 75 g/ha: 75 g a.e./ha; for inhibition at 150 g/ha: 150 g a.e./ha
Excerpt: as §1, §2, §3, §4, §5, §6, §7

TRZVX = test: Greenhouse herbicidal effectiveness, TRZVX; format: in vivo, wheat; conditions: Table 19A, 16 days after treatment
Excerpt: as §1, §2, §3, §4, §5, §6, §7

[1] = 30 g a.e./ha, tank mix OTH1 1 % v/v
[2] = 70 g a.e./ha, tank mix OTH1 1 % v/v
[3] = 100 g a.e./ha, tank mix OTH1 1 % v/v
[4] = 200 g a.e./ha, tank mix OTH1 1 % v/v
[5] = 100 g a.e./ha, no OTH22, no OTH1
[6] = 200 g a.e./ha, no OTH22, no OTH1

N.N.O=C(O)C(=O)O [OTH1]
% inhibition ABUTH (14 DAT) (ABUTH; 2 g a.e./ha): 0, 0, 0, 0%
% inhibition ABUTH (20 DAT) (ABUTH; 2 g a.e./ha): 0, 0, 0, 0%
% inhibition ABUTH (14 DAT) (ABUTH; 3 g a.e./ha): 0, 0, 0, 0%
% inhibition ABUTH (20 DAT) (ABUTH; 3 g a.e./ha): 0, 0, 0, 0%
% inhibition ABUTH (14 DAT) (ABUTH; 4 g a.e./ha): 0, 0, 0, 0%
% inhibition ABUTH (20 DAT) (ABUTH; 4 g a.e./ha): 0, 0, 0, 0%
% inhibition ABUTH (14 DAT) (ABUTH; 5 g a.e./ha): 0, 0, 0, 0%
% inhibition ABUTH (20 DAT) (ABUTH; 5 g a.e./ha): 0, 0, 0, 0%

c1cc[n+]2c(c1)-c1cccc[n+]1CC2 [diquat]
efficacy ECHCF (ECHCF; 30 g a.e./ha, no OTH1): 19
efficacy ECHCF (ECHCF; [1]): 11
efficacy ECHCF (ECHCF; 70 g a.e./ha, no OTH1): 33
efficacy ECHCF (ECHCF; [2]): 24
efficacy ECHCF (ECHCF; 100 g a.e./ha, no OTH1): 43
efficacy ECHCF (ECHCF; [3]): 33
efficacy ECHCF (ECHCF; 200 g a.e./ha, no OTH1): 46
efficacy ECHCF (ECHCF; [4]): 50
efficacy ABUTH (ABUTH; 30 g a.e./ha, no OTH1): 5
efficacy ABUTH (ABUTH; [1]): 10
efficacy ABUTH (ABUTH; 70 g a.e./ha, no OTH1): 15
efficacy ABUTH (ABUTH; [2]): 30
efficacy ABUTH (ABUTH; 100 g a.e./ha, no OTH1): 20
efficacy ABUTH (ABUTH; [3]): 41
efficacy ABUTH (ABUTH; 200 g a.e./ha, no OTH1): 32
efficacy ABUTH (ABUTH; [4]): 57
efficacy TRZVX (TRZVX; 30 g a.e./ha, no OTH1): 3
efficacy TRZVX (TRZVX; [1]): 14
efficacy TRZVX (TRZVX; 70 g a.e./ha, no OTH1): 7
efficacy TRZVX (TRZVX; [2]): 16
efficacy TRZVX (TRZVX; 100 g a.e./ha, no OTH1): 27
efficacy TRZVX (TRZVX; [3]): 19
efficacy TRZVX (TRZVX; 200 g a.e./ha, no OTH1): 46
efficacy TRZVX (TRZVX; [4]): 47

CN(C)C(=O)Nc1ccc(Cl)c(Cl)c1 [diuron]
inhibition at 75 g/ha (ECHCF; OTH1 1 % v/v): 0%
inhibition at 75 g/ha (ECHCF; no OTH22, no OTH1): 0%
inhibition at 100 g/ha (ECHCF; 100 g a.e./ha, OTH1 1 % v/v): 0%
inhibition at 100 g/ha (ECHCF; [5]): 0%
inhibition at 150 g/ha (ECHCF; OTH1 1 % v/v): 0%
inhibition at 150 g/ha (ECHCF; no OTH22, no OTH1): 0%
inhibition at 200 g/ha (ECHCF; 200 g a.e./ha, OTH1 1 % v/v): 0%
inhibition at 200 g/ha (ECHCF; [6]): 0%
inhibition at 75 g/ha (ABUTH; OTH1 1 % v/v): 0%
inhibition at 75 g/ha (ABUTH; no OTH22, no OTH1): 0%
inhibition at 100 g/ha (ABUTH; 100 g a.e./ha, OTH1 1 % v/v): 0%
inhibition at 100 g/ha (ABUTH; [5]): 0%
inhibition at 150 g/ha (ABUTH; OTH1 1 % v/v): 2%
inhibition at 150 g/ha (ABUTH; no OTH22, no OTH1): 5%
inhibition at 200 g/ha (ABUTH; 200 g a.e./ha, OTH1 1 % v/v): 10%
inhibition at 200 g/ha (ABUTH; [6]): 17%

From US7883715B2, “Pesticide compositions containing dicarboxylic acids” (Monsanto Technology LLC, priority 2002, dated 2011)
